Measurements published in US11453632B2, “1-phenyl-2-phenylethane derivative” (KAO CORPORATION, priority 2018, dated 2022).

Experiments:
ERα LBD = molecular target: T1, ERα LBD (Homo sapiens, UniProt P03372); assay: Ability to bind to ERα: pBIND-ERα LBD / GAL4 luciferase reporter in HEK293 cells; format: cell-based; set-up: key: firefly luciferase / Renilla luciferase luminescence ratio; conditions: negative control 0.00847035
T1 construct: host or cells: HEK293
T1 sequence (P03372 311-547 limits assumed): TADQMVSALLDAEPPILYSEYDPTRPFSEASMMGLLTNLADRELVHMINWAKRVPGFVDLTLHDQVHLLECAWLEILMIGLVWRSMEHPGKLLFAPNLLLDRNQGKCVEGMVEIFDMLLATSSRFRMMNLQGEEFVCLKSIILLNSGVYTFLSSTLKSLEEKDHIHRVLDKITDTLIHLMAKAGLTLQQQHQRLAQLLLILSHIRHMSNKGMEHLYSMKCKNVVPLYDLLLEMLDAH
Procedure: A human kidney-derived cell line HEK293 was cultured (37° C., 5% CO2) in Dulbecco's modified Eagle medium (hereinafter, abbreviated to DMEM) containing 10% (v/v) fetal bovine serum (FBS) and penicillin/streptomycin.
2) Measurement of Binding Activity Against ERs
Specifically, HEK293 cells were inoculated at a cell density of 4.0×10^4 cells/well to a 96-well plate. After 12 hours therefrom, the medium was replaced with a culture solution (DMEM containing 5% (v/v) charcoal-treated serum). The cells were cotransfected with pBIND-ERα for the expression of ERα LBD or pBIND-ERβ for the expression of ERβ LBD (Promega Corp.) and pGL4.35[luc2P/9XGAL4UAS/Hygro](Promega Corp.) using Lipofectamine 2000 (Invitrogen Corp.) according to the protocol attached to the product. 24 hours after transfection, the medium was replaced with a culture solution containing a test sample, followed by culture for another 24 hours. The activity measurement of firefly luciferase (index for the ligand binding activity of ER) and Renilla reniformis luciferase (index for the transfection efficiency of the plasmids) was carried out using Dual-Glo™ Luciferase Assay System (Promega Corp.) according to the attached protocol. The luminescence intensity of the firefly luciferase was divided by the luminescence intensity of the Renilla reniformis luciferase to calculate a relative light unit (RLU).

[1] = system: tail skin temperature of ovariectomized rat; assay: Tail skin temperature in ovariectomized (OVX) rat; format: in vivo
Procedure: 8-week-old female Crl:CD (SD) rats were obtained from Charles River Laboratories Japan, Inc. and individually identified by the ear punching method on the receipt date. Then, an acclimatization period was established for 1 week. The animals were raised in a rearing room under a set environment involving a temperature of 22±3° C., a humidity of 50±20%, air ventilation from 13 to 17 times/hour, and a lighting time from 8:00 to 20:00. During the acclimatization period, the rats were allowed to freely ingest solid feed CRF-1 (Oriental Yeast Co., Ltd.). Since the feeding with CRF-1, the rats were allowed to freely ingest customized feed AIN-93G (Oriental Yeast Co., Ltd.) free from components derived from soybeans.
1-2) Sham Surgery and Oophorectomy Surgery (OVX)
On the end date of acclimatization and the following day, the flank cavity was opened under isoflurane anesthesia to harvest the right and left ovaries including fallopian tubes. Other non-OVX rats were subjected to only opening and suture (sham surgery). Immediately thereafter, an antibiotic was subcutaneously administered at a dose of 100 μl/animal. After the surgery, the sham surgery or OVX animals were given customized feed and raised for approximately 1 week.
1-3) Acclimatization to Skin Temperature Measurement Environment […]
Before administration of a test substance and from 12:00 to 3:00 (dark phase) of 3, 5, 7, 14, and 21 days after the start of administration, the rats were placed in restrainers without anesthesia, and skin temperatures were measured at a site 3 cm on the tip side from the tail root using the infrared radiation thermometer. […]
Skin temperatures differed largely among individuals, and the Smirnov-Grubbs test was conducted in order to exclude outliers beforehand. Results of measuring tail skin temperatures and results of measuring uterus weights were statistically analyzed by testing using the Dunnett's test.

[2] = system: prostate of testosterone-induced prostatic hyperplasia rat; assay: Efficacy on prostate in testosterone-induced prostatic hyperplasia rat; format: in vivo; conditions: testosterone 3 mg/kg/day plus test substance 0.1 or 1 mg/kg body weight/day, subcutaneous osmotic pump, 28 days, vs testosterone alone
From the text: 12-week-old male Slc:SD (SPF) rats were obtained from Japan SLC, Inc. An acclimatization period was established for 1 week after receipt. During the acclimatization period, the rats were allowed to freely ingest a powder diet (AIN-93G).
2) Implantation of Osmotic Pump
After body weight measurement, back hair was shaved under isoflurane (AbbVie GK) inhalation anesthesia, and carprofen was subcutaneously administered to the rats. Then, an incision of approximately 1 cm at the maximum was made on the cranial side in the back. An osmotic minipump Alzet (Muromachi Kikai Co., Ltd.) containing testosterone and compound 17-F or finasteride (Sigma-Aldrich Co. LLC) was subcutaneously implanted. From this osmotic pump, testosterone (3 mg/kg body weight/day) (Sigma-Aldrich Co. LLC) and compound 17-F (0.1 mg/body weight/day or 1 mg/kg body weight/day) or finasteride (0.1 mg/kg body weight/day or 1 mg/kg body weight/day) were continuously administered for 28 days. Since the implantation of the osmotic pump, the rats were allowed to freely ingest customized feed AIN-93G (Oriental Yeast Co., Ltd.) free from components derived from soybeans.
3) Photographing of Skin and Harvesting of Prostate
After a lapse of 28 days, body weights were measured, and subsequently, the rats were euthanized by blood letting under isoflurane anesthesia. Back hair was shaved, followed by photographing. Then, the abdominal cavity was opened to harvest the prostate on the ventral side. Wet weights were measured.

Oc1ccc(CC(C=C(F)F)c2ccc(O)cc2F)c(F)c1 (centres unmarked) [Compound 17-F, 4,4′-(4,4-difluorobut-3-ene-1,2-diyl)bis(3-fluorophenol)]
relative light unit (RLU), ligand binding activity ERα (ERα LBD; 0.01 nM): 0.02573
relative light unit (RLU), ligand binding activity ERα (ERα LBD; 0.1 nM): 0.06025
relative light unit (RLU), ligand binding activity ERα (ERα LBD; 1 nM): 0.2198
relative light unit (RLU), ligand binding activity ERα (ERα LBD; 10 nM): 1.873
relative light unit (RLU), ligand binding activity ERα (ERα LBD; 100 nM): 3.193
tail skin temperature, raw value and changed temperature from the initial value ([1]; 4, 40, and 400 μg/kg subcutaneous, 3 days after the start of administration, vs negative solvent): confirmed to decrease
tail skin temperature, drug efficacy ([1]; subcutaneous, 5 days after the start of administration): temporarily disappeared
tail skin temperature, raw value and changed temperature ([1]; subcutaneous, 7 days after the start of administration): confirmed to decrease again
size of the prostate (visual, FIG. 1) [2]: Concentration-dependent decrease in the size of the prostate
weight of the prostate corrected with the body weight (FIG. 2) [2]: decreased to almost the same level as in the DMSO administration group
melting point: 90 to 91 °C
